The NIST ThermoML archive (doi:10.1016/j.jct.2017.03.024)

Conditions: Liquid, Closed cell (Static) method

O [water]
Conditions	vapor or sublimation pressure [kPa]
298 K	3.35
313 K	7.4
323 K	12.12
328.2 K	15.07
333 K	18.99
337.5 K	23.33
